Test results as given in publication PMC5779714, “Metallochaperone UreG serves as a new target for design of urease inhibitor: A novel strategy for development of antimicrobials” (PLoS Biology, 2018).
“And” between values parts separate entries of the source, which are not always exact repeats. Equal values may be shown once. Read-outs that look alike come from different tables or passages of the source.

Columns and labels:
[1] = test system: AGS cells exposed to H. pylori; assay: Cell infection model: AGS cells exposed to H. pylori pre-cultured with inhibitors; type: cell-based, human; details: for Ammonia in medium (mM) / Ammonia in medium: H. pylori pre-cultured with 10 μM inhibitor, urea 10 mM, 24 h, Hp alone ca. 2.5 mM
H. pylori urease = H. pylori urease (Helicobacter pylori, UniProt P14916+P69996); assay: cell-based; type: cell-based; details: read-out: inhibition of urease activity in H. pylori cells
[2] = test system: AGS cells with H. pylori infection; assay: AGS cells with H. pylori infection, inhibitors administrated to the AGS cells (S20 Fig); type: cell-based, human; details: 10 μM administrated to AGS cells with H. pylori infection
Text: As expected, low viability of AGS with the supplement of cmpd4 and cmpd8 was observed due to the toxicity of small compounds to mammalian cells. […] (PNG) Click here for additional data file.

UreG [3] = target: T1, UreG (Helicobacter pylori, UniProt Q09066); assay: Fluorescence-quenching titration of UreG (Kd); type: binding, H. pylori
Procedure: (§1) Using the relation between the emission intensity at 310 nm and molecule-UreG–bound species, as well as one site-binding model, the Kd values were calculated by a logistic regression model referring to a previous report. […] All fluorescence readings were corrected for the dilution effect.

UreG [4] = target: T1, UreG; assay: Nickel binding of UreG (UV absorption at 337 nm) in presence of compounds; set-up: species or system H. pylori; details: for percentage of Ni(II)-bound UreG: UreG 5 μM
Procedure: We further investigated whether binding of cmpd4 or cmpd8 to the guanine nucleotide binding pocket perturbed the Ni(II) coordination to the protein. Considering that coordination of Ni(II) to UreG results in a (Cys)→Ni(II) LMCT band centered at about 337 nm, we monitored the UV absorption of UreG samples (5 μM) at 337 nm upon titration of nickel with or without the supplement of cmpd4 or cmpd8. As shown in S19 Fig, cmpd4 at a ratio of [cmpd4]/[UreG] of 5 and 10 reduced the percentages of Ni(II)-bound UreG to ca. 75% and 30%, respectively, and a similar phenomenon was also observed for cmpd8 (S19 Fig), indicative of the disruption of nickel binding property of UreG through targeting nucleotide binding site.
Supplementary file pbio.2003887.s021.png: S19 Fig Effect of cmpd4 and cmpd8 on nickel binding property of UreG. UreG (5 μM) in HEPES buffer (5 μM GTP, 1 mM MgSO4) was titrated with NiSO4 in the presence of cmpd4 or cmpd8 at various concentrations. Titration of nickel ion into UreG samples led to the increasing of absorption at 337 nm, the highest of which was set as 100% for the percentage of Ni-bound UreG. The supplement of cmpd4 and cmpd8 reduced the percentage of Ni-bound UreG. […] (PNG) Click here for additional data file.

UreGΔNKXD = UreGΔNKXD (Helicobacter pylori, UniProt Q09066, D148A/K146A/N145A); assay: Fluorescence-quenching titration of mutant UreGΔNKXD; type: binding, H. pylori
Procedure: To further confirm the interface between UreG and small molecules generated from computational models, we then constructed an UreG mutant (UreGΔNKXD) by replacing selected residues (N145, K146, D148) with Ala to disrupt G4 motif, which abolished GTP binding of UreG (S17 Fig).
as §1

T1 sequence (Q09066 whole entry): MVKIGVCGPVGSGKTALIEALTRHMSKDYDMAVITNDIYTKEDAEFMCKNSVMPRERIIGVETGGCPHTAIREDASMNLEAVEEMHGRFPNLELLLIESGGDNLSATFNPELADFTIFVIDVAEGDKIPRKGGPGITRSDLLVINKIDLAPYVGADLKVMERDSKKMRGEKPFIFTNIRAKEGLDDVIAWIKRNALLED
UreGΔNKXD, sequence (Q09066 whole entry N145A/K146A/D148A): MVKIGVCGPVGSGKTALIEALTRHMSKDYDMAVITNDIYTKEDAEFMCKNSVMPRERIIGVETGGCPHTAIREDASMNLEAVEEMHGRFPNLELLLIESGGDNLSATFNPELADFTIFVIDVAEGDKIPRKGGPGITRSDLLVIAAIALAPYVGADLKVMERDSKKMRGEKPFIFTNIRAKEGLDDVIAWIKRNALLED
H. pylori urease, sequence (P14916 whole entry, looked up): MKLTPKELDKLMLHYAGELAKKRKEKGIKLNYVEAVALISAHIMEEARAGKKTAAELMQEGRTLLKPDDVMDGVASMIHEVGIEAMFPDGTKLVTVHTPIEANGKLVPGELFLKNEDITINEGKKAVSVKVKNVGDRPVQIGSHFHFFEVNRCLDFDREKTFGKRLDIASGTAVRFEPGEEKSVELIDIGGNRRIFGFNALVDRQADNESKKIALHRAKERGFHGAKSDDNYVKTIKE
H. pylori urease, sequence (P69996 whole entry, looked up): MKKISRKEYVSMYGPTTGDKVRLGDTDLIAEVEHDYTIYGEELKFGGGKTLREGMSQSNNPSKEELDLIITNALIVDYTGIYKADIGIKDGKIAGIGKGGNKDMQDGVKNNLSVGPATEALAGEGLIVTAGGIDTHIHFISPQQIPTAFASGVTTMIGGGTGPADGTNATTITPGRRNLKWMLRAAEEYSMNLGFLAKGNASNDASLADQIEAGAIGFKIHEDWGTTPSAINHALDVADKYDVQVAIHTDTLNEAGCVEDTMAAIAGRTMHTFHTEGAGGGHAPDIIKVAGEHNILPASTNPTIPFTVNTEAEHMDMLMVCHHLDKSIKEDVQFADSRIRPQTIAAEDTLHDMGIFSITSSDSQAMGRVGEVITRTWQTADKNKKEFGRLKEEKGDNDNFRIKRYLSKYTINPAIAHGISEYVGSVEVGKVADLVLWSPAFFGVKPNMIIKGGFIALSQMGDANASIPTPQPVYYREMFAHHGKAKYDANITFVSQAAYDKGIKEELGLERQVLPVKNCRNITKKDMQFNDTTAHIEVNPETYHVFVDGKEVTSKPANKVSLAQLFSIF

Cc1cccc(N2CCN(C(=O)c3cc(S(=O)(=O)N(C)C)ccc3N3CCCC3)CC2)c1C [cmpd4]
Normalized cell survival (%) ([1]; H. pylori pre-cultured with 10 μM inhibitor 24 h, MOI 20, 24 h infection, Hp alone 28.8%): 70.3% ± 11.3% | Normalized cell survival (%) ([1]; H. pylori pre-cultured with 10 μM inhibitor 24 h, MOI 20, 24 h infection, Hp alone 28.8%, listed as cmp4): 70.2703% | Ammonia in medium (mM) [1]: around 1.1 mM | Ammonia in medium ([1]; listed as cmp4): 1.1872 mM | inhibition at 20 µM (H. pylori urease): ~60% | Ammonia in medium [2]: 0.3373 mM | Normalized cell survival (%) [2]: low viability | Normalized cell survival (%) ([2]; listed as cmp4): 22.5225% | Kd (UreG [3]): 10.6 ± 2.3 µM | fluorescence intensity (a.u.) (UreG [3]; log(ligand[μM]) 0): 2682 a.u. | fluorescence intensity (a.u.) (UreG [3]; log(ligand[μM]) 0.30103): 2455.33 a.u. | fluorescence intensity (a.u.) (UreG [3]; log(ligand[μM]) 0.60206): 2056.33 a.u. | fluorescence intensity (a.u.) (UreG [3]; log(ligand[μM]) 0.90309): 1714.67 a.u. | fluorescence intensity (a.u.) (UreG [3]; log(ligand[μM]) 1.20412): 1176.67 a.u. | fluorescence intensity (a.u.) (UreG [3]; log(ligand[μM]) 1.50515): 615.233 a.u. | fluorescence intensity (a.u.) (UreG [3]; log(ligand[μM]) 1.80618): 297.433 a.u. | fluorescence intensity (a.u.) (UreG [3]; log(ligand[μM]) -0.30103): 2867.67 a.u. | fluorescence intensity (a.u.) (UreG [3]; log(ligand[μM]) -0.60206): 2962.67 a.u. | fluorescence intensity (a.u.) (UreG [3]; log(ligand[μM]) -1.30103): 3018 a.u. | percentage of Ni(II)-bound UreG (UreG [4]; [cmpd4]/[UreG] of 5): ca. 75% | percentage of Ni(II)-bound UreG (UreG [4]; [cmpd4]/[UreG] of 10): ~30% | absorption at 337 nm (UreG [4]; [compound]/[UreG] 5, Ni 0 μM): 5.14E-05 | absorption at 337 nm (UreG [4]; [compound]/[UreG] 5, Ni 1 μM): 0.00539 | absorption at 337 nm (UreG [4]; [compound]/[UreG] 5, Ni 2 μM): 0.00942 | absorption at 337 nm (UreG [4]; [compound]/[UreG] 5, Ni 3 μM): 0.01515 | absorption at 337 nm (UreG [4]; [compound]/[UreG] 5, Ni 4 μM): 0.01614 | absorption at 337 nm (UreG [4]; [compound]/[UreG] 5, Ni 5 μM): 0.01885 | absorption at 337 nm (UreG [4]; [compound]/[UreG] 5, Ni 6 μM): 0.02176 | absorption at 337 nm (UreG [4]; [compound]/[UreG] 5, Ni 7 μM): 0.02335 | absorption at 337 nm (UreG [4]; [compound]/[UreG] 5, Ni 8 μM): 0.02298 | absorption at 337 nm (UreG [4]; [compound]/[UreG] 10, Ni 0 μM): -8.22E-04 | absorption at 337 nm (UreG [4]; [compound]/[UreG] 10, Ni 1 μM): 0.00376 | absorption at 337 nm (UreG [4]; [compound]/[UreG] 10, Ni 2 μM): 0.00766 | absorption at 337 nm (UreG [4]; [compound]/[UreG] 10, Ni 3 μM): 0.00856 | absorption at 337 nm (UreG [4]; [compound]/[UreG] 10, Ni 4 μM): 0.00995 | absorption at 337 nm (UreG [4]; [compound]/[UreG] 10, Ni 5 μM): 0.01042 | absorption at 337 nm (UreG [4]; [compound]/[UreG] 10, Ni 6 μM): 0.01062 | absorption at 337 nm (UreG [4]; [compound]/[UreG] 10, Ni 7 μM): 0.01073 | absorption at 337 nm (UreG [4]; [compound]/[UreG] 10, Ni 8 μM): 0.00864 | Kd (UreGΔNKXD): 34.7 µM | fluorescence intensity (a.u.) (UreGΔNKXD; log(ligand[μM]) 0): 2206 a.u. | fluorescence intensity (a.u.) (UreGΔNKXD; log(ligand[μM]) 0.30103): 2092 a.u. | fluorescence intensity (a.u.) (UreGΔNKXD; log(ligand[μM]) 0.60206): 1907 a.u. | fluorescence intensity (a.u.) (UreGΔNKXD; log(ligand[μM]) 0.90309): 1710.67 a.u. | fluorescence intensity (a.u.) (UreGΔNKXD; log(ligand[μM]) 1.20412): 1454.33 a.u. | fluorescence intensity (a.u.) (UreGΔNKXD; log(ligand[μM]) 1.50515): 989.433 a.u. | fluorescence intensity (a.u.) (UreGΔNKXD; log(ligand[μM]) 1.80618): 540.3 a.u. | fluorescence intensity (a.u.) (UreGΔNKXD; log(ligand[μM]) 2.10721): 237.1 a.u. | fluorescence intensity (a.u.) (UreGΔNKXD; log(ligand[μM]) -0.30103): 2278 a.u. | fluorescence intensity (a.u.) (UreGΔNKXD; log(ligand[μM]) -1.30103): 2063.67 a.u.

O=C(Cn1c2ccccc2c(=O)c2ccccc21)N/N=C/c1cc([N+](=O)[O-])ccc1N1CCCCCC1 [cmpd8]
Normalized cell survival (%) [1]: 81.1% ± 11.3% and 81.0811% | Ammonia in medium (mM) [1]: around 1.1 mM | Ammonia in medium ([1]; listed as cmp8): 1.209 mM | inhibition at 20 µM (H. pylori urease; 20 μM compound in cultured medium): ~90% | Ammonia in medium [2]: 0.5294 mM | Normalized cell survival (%) [2]: low viability | Normalized cell survival (%) ([2]; listed as cmp8): 23.4234% | Kd (UreG [3]): 7.5 ± 3.6 µM | fluorescence intensity (a.u.) (UreG [3]; log(ligand[μM]) 0): 2868.33 a.u. | fluorescence intensity (a.u.) (UreG [3]; log(ligand[μM]) 0.30103): 2606 a.u. | fluorescence intensity (a.u.) (UreG [3]; log(ligand[μM]) 0.60206): 2272 a.u. | fluorescence intensity (a.u.) (UreG [3]; log(ligand[μM]) 0.90309): 1853.67 a.u. | fluorescence intensity (a.u.) (UreG [3]; log(ligand[μM]) 1.20412): 1359.33 a.u. | fluorescence intensity (a.u.) (UreG [3]; log(ligand[μM]) 1.50515): 767.233 a.u. | fluorescence intensity (a.u.) (UreG [3]; log(ligand[μM]) 1.68124): 595.5 a.u. | fluorescence intensity (a.u.) (UreG [3]; log(ligand[μM]) 1.80618): 360.267 a.u. | fluorescence intensity (a.u.) (UreG [3]; log(ligand[μM]) -0.30103): 3140.33 a.u. | fluorescence intensity (a.u.) (UreG [3]; log(ligand[μM]) -0.60206): 3427 a.u. | fluorescence intensity (a.u.) (UreG [3]; log(ligand[μM]) -1.30103): 3670 a.u. | absorption at 337 nm (UreG [4]; [compound]/[UreG] 5, Ni 0 μM): 2.14E-04 | absorption at 337 nm (UreG [4]; [compound]/[UreG] 5, Ni 1 μM): 0.00481 | absorption at 337 nm (UreG [4]; [compound]/[UreG] 5, Ni 2 μM): 0.0064 | absorption at 337 nm (UreG [4]; [compound]/[UreG] 5, Ni 3 μM): 0.00838 | absorption at 337 nm (UreG [4]; [compound]/[UreG] 5, Ni 4 μM): 0.01641 | absorption at 337 nm (UreG [4]; [compound]/[UreG] 5, Ni 5 μM): 0.0186 | absorption at 337 nm (UreG [4]; [compound]/[UreG] 5, Ni 6 μM): 0.01908 | absorption at 337 nm (UreG [4]; [compound]/[UreG] 5, Ni 7 μM): 0.02094 | absorption at 337 nm (UreG [4]; [compound]/[UreG] 5, Ni 8 μM): 0.0213 | absorption at 337 nm (UreG [4]; [compound]/[UreG] 10, Ni 0 μM): 0.00131 | absorption at 337 nm (UreG [4]; [compound]/[UreG] 10, Ni 1 μM): 0.00222 | absorption at 337 nm (UreG [4]; [compound]/[UreG] 10, Ni 2 μM): 0.00217 | absorption at 337 nm (UreG [4]; [compound]/[UreG] 10, Ni 3 μM): 0.00973 | absorption at 337 nm (UreG [4]; [compound]/[UreG] 10, Ni 4 μM): 0.01047 | absorption at 337 nm (UreG [4]; [compound]/[UreG] 10, Ni 5 μM): 0.01403 | absorption at 337 nm (UreG [4]; [compound]/[UreG] 10, Ni 6 μM): 0.0146 | absorption at 337 nm (UreG [4]; [compound]/[UreG] 10, Ni 7 μM): 0.01179 | absorption at 337 nm (UreG [4]; [compound]/[UreG] 10, Ni 8 μM): 0.01166 | Kd (UreGΔNKXD): 33.4 µM | fluorescence intensity (a.u.) (UreGΔNKXD; log(ligand[μM]) 0): 2422.67 a.u. | fluorescence intensity (a.u.) (UreGΔNKXD; log(ligand[μM]) 0.30103): 2357.67 a.u. | fluorescence intensity (a.u.) (UreGΔNKXD; log(ligand[μM]) 0.60206): 2253.67 a.u. | fluorescence intensity (a.u.) (UreGΔNKXD; log(ligand[μM]) 0.90309): 2017.33 a.u. | fluorescence intensity (a.u.) (UreGΔNKXD; log(ligand[μM]) 1.20412): 1677.67 a.u. | fluorescence intensity (a.u.) (UreGΔNKXD; log(ligand[μM]) 1.50515): 1189.33 a.u. | fluorescence intensity (a.u.) (UreGΔNKXD; log(ligand[μM]) 1.80618): 685.167 a.u. | fluorescence intensity (a.u.) (UreGΔNKXD; log(ligand[μM]) 2.10721): 316.133 a.u. | fluorescence intensity (a.u.) (UreGΔNKXD; log(ligand[μM]) -0.30103): 2519 a.u. | fluorescence intensity (a.u.) (UreGΔNKXD; log(ligand[μM]) -1.30103): 2677 a.u.
